Assay results from patent US7517905B2, “Substituted azabicyclo hexane derivatives as muscarinic receptor antagonists” (Ranbaxy Laboratories Limited, priority 2003, dated 2009).

Legend:
M2 muscarinic receptor = molecular target: T1, M2 muscarinic receptor (Rattus norvegicus, UniProt P10980); test: Radioligand binding assay, [3H]-N-methyl scopolamine, rat heart membranes; settings: [3H]NMS displacement, Ki by Cheng & Prusoff; for Ki: read-out: Receptor Binding Assay M2 pKi (converted)
T1 construct: Submandibular glands and heart were isolated and placed in ice cold homogenizing buffer; from tissue; host or cells: rat heart membrane homogenate
T1 sequence (P10980 1-466): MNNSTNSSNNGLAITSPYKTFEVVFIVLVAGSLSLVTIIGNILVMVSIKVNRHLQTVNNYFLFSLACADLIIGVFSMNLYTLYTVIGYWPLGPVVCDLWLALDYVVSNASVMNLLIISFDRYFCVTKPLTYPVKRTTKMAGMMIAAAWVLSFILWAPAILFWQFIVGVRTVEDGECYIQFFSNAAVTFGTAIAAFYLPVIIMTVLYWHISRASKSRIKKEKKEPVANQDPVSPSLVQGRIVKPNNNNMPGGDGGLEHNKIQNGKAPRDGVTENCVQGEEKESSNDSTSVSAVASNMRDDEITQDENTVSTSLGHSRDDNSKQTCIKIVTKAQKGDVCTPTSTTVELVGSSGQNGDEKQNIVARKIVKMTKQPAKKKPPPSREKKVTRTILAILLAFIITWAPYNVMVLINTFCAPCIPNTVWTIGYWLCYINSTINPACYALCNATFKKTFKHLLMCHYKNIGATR
Protocol: The affinity of test compounds for M2 and M3 muscarinic receptor subtypes was determined by [^3H]—N-methyl scopolamine binding studies using rat heart and submandibular gland, respectively as described by Moriya et al., (Life Sci, 1999, 64(25): 2351-2358).
(§1) Membrane preparation: Submandibular glands and heart were isolated and placed in ice cold homogenizing buffer (HEPES 20 mM, 10 mM EDTA, and pH 7.4) immediately after sacrifice. The tissues were homogenized in 10 volumes of homogenizing buffer and the homogenate was filtered through two layers of wet gauze and filtrate was centrifuged at 500 g for 10 min. The supernatant was subsequently centrifuged at 40.000 g for 20 min. The pallet thus obtained was resuspended in same volume of assay buffer (HEPES 20 mM, EDTA 5 mM, pH 7.4) and were stored at −70° C. until the time of assay.
Ligand binding assay: The compounds were dissolved and diluted in dimethylsulfoxide. The membrane homogenates (150-250 μg protein) were incubated in 250 ul of assay buffer HEPES 20 mM, pH 7.4) at 24-25° C. for 3 hour. Non-specific binding was determined in the presence of 1 μM atropine. The incubation was terminated by vacuum filtration over GF/B fiber filters (Wallac). The filters were then washed with ice-cold 50 mM Tris HCI buffer (pH 7.4). The filter mats were dried and bound radioactivity retained on filters was counted. The IC50 & Kd were estimated by using the non-linear curve-fitting program using G Pad Prism software. The value of inhibition constant Ki was calculated from competitive binding studies by using Cheng & Prusoff equation (Biochem Pharmacol, 1973.22: 3099-3108), Ki=IC50/(1+L/Kd), where L is the concentration of [^3H]NMS used in the particular experiment. pKi=−log Ki Functional Experiments using Isolated Rat Bladder: Methodology: […]

M3 muscarinic receptor = molecular target: T2, M3 muscarinic receptor (Rattus norvegicus, UniProt P08483); test: Radioligand binding assay, [3H]-N-methyl scopolamine, rat submandibular gland membranes; settings: [3H]NMS displacement, Ki by Cheng & Prusoff; for Ki: read-out: Receptor Binding Assay M3 pKi (converted)
T2 construct: Submandibular glands and heart were isolated and placed in ice cold homogenizing buffer; from tissue; host or cells: rat submandibular gland membrane homogenate
Protocol: as §1
Ligand binding assay: The compounds were dissolved and diluted in dimethylsulfoxide. The membrane homogenates (150-250 μg protein) were incubated in 250 ul of assay buffer HEPES 20 mM, pH 7.4) at 24-25° C. for 3 hour. Non-specific binding was determined in the presence of 1 μM atropine. The incubation was terminated by vacuum filtration over GF/B fiber filters (Wallac). The filters were then washed with ice-cold 50 mM Tris HCI buffer (pH 7.4). The filter mats were dried and bound radioactivity retained on filters was counted. The IC50 & Kd were estimated by using the non-linear curve-fitting program using G Pad Prism software.

isolated rat bladder = test: Functional experiments using isolated rat bladder (carbachol concentration response curve); type: cell-based; settings: isolated rat bladder strips, carbachol-induced contraction, antagonist added 20 min before second CRC; for Kb: read-out: Functional Assay pKB (converted)
Protocol: Animals were euthanized by overdose of urethane and whole bladder was isolated and removed rapidly and placed in cold Tyrode buffer with the following composition (mMol/L) sodium chloride 137; KCl 2.7, CaCl2 1.8, MgCl2 0.1; NaHCO3 11.9, NaH2PO4 0.4; Glucose 5.55 and continuously gassed with 95% O2 and 5% CO2
The bladder was cut into longitudinal strips (3 mm wide and 5-6 mm long) and mounted in 10 ml organ baths at 30° C., with one end connected to the base of the tissue holder and the other end connected to a polygraph through a force displacement transducer. Each tissue was maintained at a constant basal tension of 2 g and allowed to equilibrate for 1 hour during which the PSS was changed every 15 min. At the end of equilibration period, the stabilization of the tissue contractile response was assessed with 1 u mol/L of carbachol consecutively for 2-3 times. Subsequently, a cumulative concentration response curve to carbachol (10^−9 mol/L to 3×10^−5 mol/L) was obtained. After several washes, once the baseline was achieved, cumulative concentration response curve was obtained in the presence of NCE (NCE added 20 min. prior to the second CRC).
The contractile results were expressed as % of control E max ED50 values were calculated by fitting a non-linear regression curve (Graph Pad Prism). PKB values were calculated by the formula pKB=−log [(molar concentration of antagonist/(dose ratio-1))] where,
dose ratio=ED50 in the presence of antagonist/ED50 in the absence of antagonist.

T2 sequence (P08483 whole entry): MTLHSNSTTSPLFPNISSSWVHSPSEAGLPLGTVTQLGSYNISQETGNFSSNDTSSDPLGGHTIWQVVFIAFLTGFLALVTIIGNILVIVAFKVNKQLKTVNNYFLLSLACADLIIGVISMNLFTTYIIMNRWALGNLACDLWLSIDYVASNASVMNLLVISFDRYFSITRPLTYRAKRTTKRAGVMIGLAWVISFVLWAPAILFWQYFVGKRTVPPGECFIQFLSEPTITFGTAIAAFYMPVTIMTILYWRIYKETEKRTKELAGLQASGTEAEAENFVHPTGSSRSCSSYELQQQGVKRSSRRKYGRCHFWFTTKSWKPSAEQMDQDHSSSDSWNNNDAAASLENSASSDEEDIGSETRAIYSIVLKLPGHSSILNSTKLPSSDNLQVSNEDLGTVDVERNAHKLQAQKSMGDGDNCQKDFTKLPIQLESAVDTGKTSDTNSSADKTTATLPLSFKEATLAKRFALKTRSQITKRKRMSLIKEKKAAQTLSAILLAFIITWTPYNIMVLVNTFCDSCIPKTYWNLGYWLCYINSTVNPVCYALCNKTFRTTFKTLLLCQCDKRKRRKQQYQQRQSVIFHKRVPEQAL

Compound	Receptor Binding Assay M2 pKi (M2 muscarinic receptor)	Receptor Binding Assay M3 pKi (M3 muscarinic receptor)	Ki (M2 muscarinic receptor)	Ki (M3 muscarinic receptor)	Functional Assay pKB (isolated rat bladder)	Kb (isolated rat bladder)
Cc1ccc(O)c(C(CCNC2C3CN(Cc4ccccc4)CC32)c2ccccc2)c1 (single isomer, unassigned) [Compound No. 16, (R or S)—N-(3-benzy-1-3-azabicyclo[3.1.0]hex-6-yl]-[3-(2-hydroxy-5-methylphenyl)-3-phenylpropyl]amine]					7.25 ± 0.15	
Cc1ccc(OCc2ccccc2)c(C(CC(=O)OCC(=O)NC2C3CN(Cc4ccccc4)CC32)c2ccccc2)c1 (centres unmarked) [Compound No. 2, 3-(2-benzyloxy-5-methylphenyl)-3-phenyl propanoic acid-(3-benzyl-3-azabicyclo[3.1.0]-hex-6-ylcarbamoyl)-methyl ester]			> 1000 nM	> 1000 nM		6760 nM
Cc1ccc(O)c(C(CC(=O)NC2C3CNCC32)c2ccccc2)c1 (centres unmarked) [Compound No. 3, N-(3-azabicyclo[3.1.0]hex-6-yl)-3-(2-hydroxy-5-methylphenyl)-3-phenyl-1-propanoic acid]	<6	<6			5.95	
COc1ccc(C)cc1C(CC(=O)OCC(=O)NC1C2CNCC21)c1ccccc1 (centres unmarked) [Compound No. 7, 3-(2-methoxy-5-methylphenyl)-3-phenylpropionic acid-(3-azabicyclo[3.1.0]hex-6-ylcarbamoyl)methyl ester]			> 1000 nM	> 1000 nM		2510 nM
COc1ccc(C)cc1C(CC(=O)NCC(=O)N[C@H]1[C@@H]2CN(Cc3ccccc3)C[C@@H]21)c1ccccc1 (some centres unmarked) [Compound No. 10, N-[(3-benzyl-3-azabicyclo[3.1.0]hex-6-ylcarbamoyl]-methyl]-3(-2-methoxy-5-methylphenyl)-3-phenyl propionamide]			> 1000 nM	> 1000 nM		1950 nM
Cc1ccc(O)c(C(CC(=O)N[C@H]2[C@@H]3CN(Cc4ccccc4)C[C@@H]32)c2ccccc2)c1 (some centres unmarked) [Compound No. 11, N-(3-benzyl-3-azabicyclo[3.1.0]hex-6-yl)-3-(2-hydroxy-5-methylphenyl)-3-phenyl propionamide]			> 1000 nM	> 1000 nM		6760 nM
Cc1ccc(O)c([C@H](CCN(C(C)C)C(C)C)c2ccccc2)c1 [Tolterodine, reference compound]						1.38 nM

Now from value to compound, other results behind:

Receptor Binding Assay M2 pKi (M2 muscarinic receptor)	Receptor Binding Assay M3 pKi (M3 muscarinic receptor)	Ki (M2 muscarinic receptor)	Ki (M3 muscarinic receptor)	Compound	Functional Assay pKB (isolated rat bladder)	Kb (isolated rat bladder)
<6	<6			3-(2-methoxy-5-methylphenyl)-3-phenylpropanoic acid-4-[(3-azabicyclo[3.1.0]hex-6-yl]-ethoxy carbonylamino]butyl ester [Compound No. 5]	5.15	
		> 1000 nM	> 1000 nM	COc1ccc(C)cc1C(CC(=O)OCC(=O)NC1C2CN(Cc3ccccc3)CC21)c1ccccc1 (centres unmarked) [Compound No. 1, 3-(2-Methoxy-5-methylphenyl)-3-phenyl propanoic acid-(3-benzyl-3-azabicyclo[3.1.0]hexane-6-yl-carbamoyl)methyl ester]		9770 nM
<6	<6			COc1ccc(C)cc1C(CC(=O)NC1C2CNCC21)c1ccccc1 (centres unmarked) [Compound No. 4, N-(3-azabicyclo[3.1.0]hex-6-yl)-3-(2-methoxy-5-methylphenyl)-3-phenyl-1-propionamide]	5.64	
<6	<6			Cc1ccc(O)c(C(CC(=O)OCCCCNOCCC2C3CNCC23)c2ccccc2)c1 (centres unmarked) [Compound No. 6, 3-(2-hydroxy-5-methylphenyl)-3-phenylpropionic acid 4-[(3-azabicyclo[3.1.0]hex-6-yl)ethoxyamino]butyl ester]	5.84	
		> 1000 nM	> 1000 nM	Cc1ccc(O)c(C(CC(=O)OCC(=O)NC2C3CNCC32)c2ccccc2)c1 (centres unmarked) [Compound No. 8, 3-(2-hydroxy-5-methylphenyl)-3-phenylpropionic acid-(3-azabicyclo[3.1.0]hex-6-ylcarbamoyl)methyl ester]	No blockade	
		> 1000 nM	> 1000 nM	Cc1ccc(O)c(C(CC(=O)NCC(=O)NC2C3CN(Cc4ccccc4)CC32)c2ccccc2)c1 (centres unmarked) [Compound No. 9, N-[(3-benzyl-3-azabicyclo[3.1.0]hex-6-ylcarbamoyl)-methyl]-3-(2-hydroxy-5-methylphenyl)-3-phenyl-propionamide]		1910 nM
<6	<6			CCOC(=O)N(CCCCOC(=O)CC(c1ccccc1)c1cc(C)ccc1OC)C1C2CN(Cc3ccccc3)CC21 (centres unmarked) [Compound No. 12, 3-(2-methoxy-5-methylphenyl)-3-phenylpropionic acid-4-[(3-benzyl-3-azabicyclo[3.1.0]hex-6-yl)-ethoxycarbonylamino]butyl ester]	6.72	
